Laboratory results reported in patent publication US20240118263A1, “TARGET FOR SCREENING ANTI-TUMOR DRUG, USE THEREOF AND SCREENING METHOD THEREFOR” (SHENYANG FUYANG PHARMACEUTICAL TECHNOLOGY CO., LTD., priority 2019, published 2024).
Entries after “also recorded” stand apart in the source; their conditions may differ.

Key:
[1] = tested on: LN229-luc intracranial tumor; assay: Intracranial LN229-luc glioblastoma xenograft mouse model; type: in vivo, NSG mice; conditions: ISP I 66 mg/kg intraperitoneally daily, vs control group
Text: The inventors first assessed ISP I's anti-tumor activity in an intracranial mouse model (FIG. 13A). NSG mice were inoculated with 1×10^5 LN229-luc cells in the right-frontal cortex. After 7 days, intracranial tumor growth was confirmed via noninvasive in vivo bioluminescence imaging and mice were randomized into ISP I or DMSO (control) treatment groups.
Mice experiments were approved by the National Institute of Neurological Disorders and Stroke (NINDS) and National Cancer Institute (NCI) Animal Use and Care Committees. For intracranial xenografts establishment, NOD-Prkde^scidIl2rg^tmiWjl (NSG) mice (6-8 weeks old from the NCI-Frederick animal facility) were inoculated intracranially with 100,000 LN229-luc cells suspended in 2 μL Hank's Balanced Salt Solution (HBSS), a product of Crystalgen (Commack, NY USA). After one week, luciferin signals were detected to confirm the survival of tumor cells in mice. The mice were assigned to the indicated groups according to the signal intensity, in order to keep the baseline balanced. ISP I was injected intraperitoneally daily at a dose of 66 mg/kg body weight for 24 days. The mice in control group were injected with the same volume of corn oil or saline. The viability of tumors was monitored every four days. […]

[2] = tested on: human non-small cell lung cancer cells A549
Protocol: Experimental Materials Human non-small cell lung cancer cells A549, mouse breast cancer cells 4T-1 and mouse melanoma B16-BL6 were purchased from American Type Current Collection (ATCC, Rockville, MD, USA). An RPMI-1640 culture solution containing 10% of fetal calf serum and 2% of glutamine was inoculated with the A549, 4T-1 and B16-BL6 cells, and the cells were incubated at 37° C. in a 5% CO2 incubator.
The compounds were dissolved in DMSO under a sterile condition, and the obtained solutions were diluted to required concentrations by using an RPMI 1640 culture solution, wherein the final concentration of the DMSO was less than 0.5%.
MTT reduction method is used.
A549, 4T-1 and B16-BL6 were used as adherent cells, adherent tumor cells in a logarithmic phase were selected, digested with pancreatin, and then prepared into a cell suspension of 5×10^4/ml with a culture medium containing 10% of calf serum, a 96-well culture plate was inoculated with the cell suspension, wherein each well contained 100 μl of the cell suspension, and incubation was carried out for 24 h at 37° C. and 5% CO2. Replacing was carried out with a new culture solution containing the samples to be detected of different concentrations in the experimental groups, replacing was carried out with a culture solution containing a same volume of solvent in the control group, three parallel wells were set in each group, and incubation was carried out for 48 hours at 37° C. and 5% CO2. The supernate was discarded, careful washing was carried out with PBS twice, 100 μl of a freshly prepared culture medium containing 0.5 mg/ml of MTT was added into each well, and incubation was continued to be carried out at 37° C. for 4 h. The supernatant was carefully discarded, 150 μl of DMSO was added, uniform mixing was carried out for 10 min by using a micro oscillator, and the optical density value was measured at 492 nm by using a microplate reader.
Tumor cell growth inhibition ratio (%)=[A492 (negative control)−A492 (dosing group)]/A492 (negative control)×100%
The median inhibitory concentration (IC50) of the sample is calculated.

[3] = Veterinary histopathology review of major organs and clinical chemistry; type: in vivo; conditions: 24 days after treatment
LN229 and U251 cells = assay: Annexin V apoptosis flow cytometry, glioblastoma cells; type: cell-based
Protocol: Cell apoptosis and cell cycle: Cells (2×10^5) were plated in 6-well plates and treated with different concentrations of ISP I. Then the cells were harvested and washed three times with PBS. Cells were resuspended in 100 μl binding buffer and were incubated with 5 μl APC-conjugated Annexin V working solution, a product of BD bioscience (Franklin Lakes, NJ USA), and 1 μl propidium iodide (PI), a product of Invitrogen, for 15 min at room temperature with protection from light. Data acquisition and quantification were processed with BD LSRFortessa flow cytometer, using FlowJo software (Ashland, OR USA).

786-O and RCC4 cells = assay: Cell cycle analysis by flow cytometry, RCC cells; type: cell-based
Protocol: Cell viability was assessed similarly via CKK8 analysis. […] (FIG. 10C, D).
For monitoring cell-cycle arrest of ISP I-treated cells, Click-iT EdU Flow Cytometry Assay Kits were used, a product of ThermoFisher Scientific. Cells were co-cultured with EdU at a concentration of 10 μM for 1 hour. After fixation and permeabilization, EdU-positive cells were labeled with Alexa Fluor 647 fluorescein. DAPI also was used for measuring total DNA content to identify differences in cell cycle phases. Data were collected by means of a BD LSRFortessa flow cytometer using FlowJo software. Cells that are positive with EdU and DAPI were in S-Phase of the cell cycle.

SELH (Sec44→Cys44) = SELH (Sec44→Cys44) (Homo sapiens, UniProt Q8IZQ5, U44C); assay: SPR assay of ISP I with SELH synthesized in bacteria; type: binding
Sequence of SELH (Sec44→Cys44) (Q8IZQ5 with tags, fused parts or gaps U44C): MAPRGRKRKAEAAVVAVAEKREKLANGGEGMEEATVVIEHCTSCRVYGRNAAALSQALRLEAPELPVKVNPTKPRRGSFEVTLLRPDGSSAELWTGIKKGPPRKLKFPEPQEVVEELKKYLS
Text: Next, the inventors used a thermo-stability assay to confirm SELH was targeted by ISP I in LN229 and 786-O cell lines. The principle of the assay is based on altered protein thermal stabilization/destabilization due to ligand binding in living cells. […] (FIG. 11B and FIG. 12A). To verify further the specificity of ISP I's targeting of SELH, the inventors designed a surface plasmon resonance assay to assess the interaction of ISP I with SELH synthesized in bacteria.
The affinities constant (KD) and kinetics (ka and kd) of ISP I binding to SELH (Sec44→Cys44) were assayed using Biacore 8K (GE Healthcare, Sweden), all at 25° C. […] Coupling conditions were determined by protein isoelectric points. […]
To determine the binding affinity between ISP I and SELH (Sec44→Cys44), a series of ISP I dilutions was analyzed by single-cycle kinetics. […] The ISP I at various gradient concentrations and one zero concentration (running buffer) flowed over the immobilized SELH, with 120 s for binding, followed by disassociation for 120 s, and the obtained response units (RUs) were recorded. The RU values were collected, and the binding affinity data were calculated by kinetic models (1:1 interaction) within Biacore 8K Evaluation Software. The equilibrium dissociation constant (KD) was calculated to evaluate the ability of ISP I to interact with SELH.

CO[C@@H]1[C@@H](O[C@@H]2O[C@H](C)[C@@H](O[C@H]3C[C@@](C)(O)[C@@H](OC(=O)CC(C)C)[C@H](C)O3)[C@H](N(C)C)[C@H]2O)[C@@H](CC=O)C[C@@H](C)[C@@H](O[C@H]2CC[C@H](N(C)C)[C@@H](C)O2)/C=C/C=C/C[C@@H](C)OC(=O)C[C@H]1O [Isovalerylspiramycin I, 4″-isovalerylspiramycin I]
tumor growth by bioluminescence imaging [1]: significantly reduced tumor growth; also recorded: complete response | A549 IC50 cytotoxicity [2]: 1.29 µg/mL | toxicities in major organs and clinical chemistry [3]: no hematologic, renal, pancreatic or liver toxicities | apoptosis (Annexin V stain) (LN229 and U251 cells): dose-dependent apoptosis | cell-cycle arrest (786-O and RCC4 cells): induced cell-cycle arrest in the G0/G1 phase | binding to SELH versus other proteins (SELH (Sec44→Cys44)): tightly binds to SELH but does not bind with the other proteins
